According to patent US7884133B2, “Pharmaceutical compositions containing (+) cannabidioil and derivatives thereof and some such novel derivatives” (priority 2003, dated 2011):
“Also recorded” adds a separate entry of the source. Like-named read-outs stand apart in the source and are kept apart here.

Experiments:
CB1 receptor [1] = target: T1, CB1 receptor (Rattus norvegicus, UniProt P20272); assay: CB1 receptor binding; conditions: for Ki: first value of CB1/CB2 cell
female Sabra mice [2] = assay: Intestinal motility (defecation, number of fecal pellets); format: in vivo; conditions: 20 mg/kg i.p.; for Inhibition of Intesitinal Motility (% MPE): defecation in open field 8 min, normalized, * = P<0.05 vs vehicle; for inhibition of defecation / intestinal motility, in words: 60 minutes after injection
Description: (§1) Defecation was measured as the number of fecal pellets voided in the open field. In some experiments (as indicated below), fecal pellets and body temperature were assessed for a prolonged period (3 hr).

female Sabra mice [3] = assay: Tetrad: ambulation (horizontal movements) in an open field; format: in vivo; conditions: 20 mg/kg i.p., open field 8 min, 30 or 60 min after injection; normalized; * = P<0.05 vs vehicle
Description: (§2) Mice were injected with antagonist 90 minutes before testing and/or with agonist 60 minutes before testing in a series of four assays which reflect central cannabinoid activity [Martin (1991) id. ibid.; modified by Fride, E. and R. Mechoulam (1993) id. ibid.]. This “tetrad” consists of, consecutively, ambulation and rearing in an open field (8 minutes), immobility on an elevated ring of 5 cm diameter (4 minutes), rectal temperature (Yellow

female Sabra mice [4] = assay: Hypothermia (rectal temperature); format: in vivo; conditions: 20 mg/kg i.p., * = P<0.05 vs vehicle
Description: as §2, §1

CB2 receptor [5] = target: T2, CB2 receptor (Homo sapiens, UniProt P34972); assay: CB2 receptor binding; conditions: for Ki: second value of CB1/CB2 cell
female Sabra mice [6] = assay: Tetrad: catalepsy (immobility) on an elevated ring; format: in vivo; conditions: 20 mg/kg i.p., elevated ring 4 min; normalized; * = P<0.05 vs vehicle
Description: as §2

female Sabra mice [7] = assay: Tetrad: rearing (vertical movements) in an open field; format: in vivo; conditions: 20 mg/kg i.p., open field 8 min; normalized; * = P<0.05 vs vehicle
Description: as §2

female Sabra mice [8] = assay: Hot plate analgesia (centrally mediated pain); format: in vivo; conditions: 20 mg/kg i.p., hot plate 55° C., max 45 sec; normalized; * = P<0.05 vs vehicle
Description: Pain perception on a hot plate, is considered to be mediated by a central mechanism whereas the second, late phase of the response to an implantar injection of formalin reflects inflammatory pain mechanisms [Tjolsen, A. and Hole (1997) id. ibid.].
Thus, central pain perception was assessed by the analgesic response on a hot plate (55° C., Columbus Instruments, OH, USA). Peripheral pain was measured by the response to implantar injection of formalin (4%) 45 minutes after injection of the drug.

CB1 receptor [9] = target: T1, CB1 receptor; conditions: cited from earlier work
[10] = tested on: arachidonic acid-induced ear inflammation in the mouse; assay: Arachidonic acid induced inflammation of the external ear; format: in vivo; conditions: for inhibition of arachidonic acid-induced ear inflammation, in words: i.p., 10 to 40 mg/kg, ear thickness every 15 minutes for 90 minutes
Description: Ear inflammation was measured by assessing ear tissue swelling after topical application of arachidonic acid, as described previously [Hanus (1999) id. ibid.]. Briefly, at various times after i.p. drug injections, arachidonic acid was applied to the inner surface of one ear (4.5 mg dissolved in […] ethanol). The opposite ear served as control (5 ethanol). Ear thickness was determined (in 0.01-mm units) by using a dial thickness gauge (Mitutoyo, Japan) every 15 minutes for 90 minutes, starting immediately after arachidonic acid application.

[11] = tested on: CB1−/− receptor knockout mice; assay: Central effects in CB1−/− receptor knockout mice; format: in vivo; conditions: not shown
Description: (§3) Female Sabra mice (2-3 months of age) were purchased from Harlan, Israel. Breeding pairs of CB1−/− receptor knockout mice were provided by Prof. A. Zimmer, University Clinic Bonn, Germany.
as §2

[12] = tested on: CB1−/− receptor knockout mice; assay: Intestinal motility in CB1−/− receptor knockout mice; format: in vivo; conditions: 20 mg/kg i.p., defecation rate recorded for 3 hours
Description: Female CB1−/− knockout mice were injected i.p. with (+)-7-OH-CBD-DMH, (+)-CBD-DMH or Δ^9-THC (20 mg/kg). Intestinal motility (defecation rate) was recorded for a period of 3 hours.
as §3, §1

CB2 receptor [13] = target: T2, CB2 receptor; conditions: cited from earlier work
female Sabra mice [14] = assay: Tetrad overall (central cannabinoid activity); format: in vivo; conditions: 20 mg/kg i.p., tested 60 minutes later
Description: Central activity of the compounds of the invention was assessed in the “tetrad”, which is a series of assays commonly used to measure central cannabimimmetic effects [Martin, B. R. et al. (1991) Pharmacol. Biochem. Behav. 40(3): 471-8; Fride, E. and C. Sanudo-Pena (2002) id. ibid.]. Three parameters for peripheral activity were used. Since gastrointestinal transit is regulated locally in the periphery rather than by centrally located CB1 receptors [Izzo (2000) id. ibid.; Landi (2002) id. ibid.], intestinal motility was one of the parameters used, and peripheral cannabinoid effects was measured as rates of defecation (see Example 29).
as §2

female Sabra mice [15] = assay: Intestinal motility after antagonist pre-treatment (SR141716A, SR144528, capsazepine); format: in vivo
Description: (SR1, 1 mg/kg). SR1 was injected (i.p.) 30 minutes before the agonist. 60 minutes after (+)CBD-DMH the number of fecal pellets was recorded.
(SR2, 1 mg/kg). SR2 was injected (i.p.) 30 minutes before the agonist. 60 minutes after (+)-CBD-DMH the number of fecal pellets was recorded.
as §2, §1

female Sabra mice [16] = conditions: Hanus (1999); antagonized by SR144528, not by SR141716A; cited from earlier work

T1 sequence (P20272 whole entry): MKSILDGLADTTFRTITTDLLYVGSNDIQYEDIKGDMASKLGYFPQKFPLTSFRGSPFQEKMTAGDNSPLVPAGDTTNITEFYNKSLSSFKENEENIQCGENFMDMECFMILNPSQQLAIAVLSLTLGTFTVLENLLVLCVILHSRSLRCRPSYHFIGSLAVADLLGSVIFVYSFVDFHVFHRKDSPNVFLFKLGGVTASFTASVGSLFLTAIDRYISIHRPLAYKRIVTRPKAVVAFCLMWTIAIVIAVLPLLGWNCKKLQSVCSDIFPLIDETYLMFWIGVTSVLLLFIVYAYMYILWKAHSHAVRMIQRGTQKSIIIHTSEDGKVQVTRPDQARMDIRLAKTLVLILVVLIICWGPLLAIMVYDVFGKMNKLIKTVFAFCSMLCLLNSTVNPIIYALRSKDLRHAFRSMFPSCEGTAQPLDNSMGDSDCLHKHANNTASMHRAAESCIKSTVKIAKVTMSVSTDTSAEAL
T2 sequence (P34972 whole entry): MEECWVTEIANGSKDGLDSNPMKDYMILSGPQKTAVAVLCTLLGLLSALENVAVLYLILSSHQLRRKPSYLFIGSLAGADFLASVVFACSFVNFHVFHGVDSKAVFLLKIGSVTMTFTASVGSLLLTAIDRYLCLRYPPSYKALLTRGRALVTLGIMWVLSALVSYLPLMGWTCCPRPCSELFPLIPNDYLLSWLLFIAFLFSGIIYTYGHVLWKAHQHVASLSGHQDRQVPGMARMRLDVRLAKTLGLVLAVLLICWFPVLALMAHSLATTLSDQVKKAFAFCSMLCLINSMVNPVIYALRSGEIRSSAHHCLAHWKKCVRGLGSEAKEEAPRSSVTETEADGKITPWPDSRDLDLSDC

Row | Structure (SMILES) | Ki (CB1 receptor [1]) [nM] | Inhibition of Intesitinal Motility (% MPE) (female Sabra mice [2]) | Horizontal Movements (% MPE) (female Sabra mice [3]) | Hypothermia (Δ-Body Temp.) (female Sabra mice [4]) | Ki (CB2 receptor [5]) [nM] | Catalepsy (Freezing of Movement) (% MPE) (female Sabra mice [6]) | Vertical Movements (% MPE) (female Sabra mice [7]) | Analgesia (Hot Plate) (% MPE) (female Sabra mice [8]) | other results
1 | C=C(C)C1CCC(C(=O)O)=CC1c1c(O)cc(CCCCC)cc1O (single isomer, unassigned) [+COOH−CBD, 7-Nor-carboxy CBD] | 13.2 | 100* % MPE | 80 % MPE | −0.6 °C | 322 | 06 % MPE | 71 % MPE |  | 
2 | C=C(C)C1CCC(CO)=CC1c1c(O)cc(CCCCC)cc1O (single isomer, unassigned; (+)) [+70H−CBD, (+)-7-Hydroxy CBD] | 5.3 | 89* % MPE | 107 % MPE | 0.3 °C | 101 | 0 % MPE | 81 % MPE | 77 % MPE | 
3 | C=C(C)C1CCC(CO)=CC1c1c(O)cc(C(C)(C)CCCCCC)cc1O (single isomer, unassigned; (+)) [+70H−CBD−DMH, (+)-7-Hydroxy CBD-DMH] |  | 100* % MPE | 01* % MPE | −5.2* ° C. |  | 95* % MPE | 0* % MPE | 100* % MPE | inhibition of defecation / intestinal motility, in words (female Sabra mice [2]): completely blocked; Ki (CB1 receptor [9]; first value of CB1/CB2 cell, data from Bisogno et al., 2001, read-out: CB1 Receptor Binding (Ki)): 2.5 nM; Kd (CB1 receptor [9]; previously reported, Bisogno et al. 2001, read-out: affinity for the CB1 receptor (Kd)): 2.5 nM; inhibition of arachidonic acid-induced ear inflammation, in words ([10]; listed as (+)7OH-CBD-DMH): effectively prevented ear inflammation; inhibition of arachidonic acid-induced ear inflammation, in words ([10]; listed as (+)-7-OHCBD-DMH): inhibited ear inflammation; central effects in CB1−/− receptor knockout mice [11]: None of the drugs assessed ((+)-CBD-DMH, (+)-7-OH-CBD-DMH and Δ^9-THC had any effect; effect on intestinal motility in CB1−/− knockout mice ([12]; listed as (+)-7-OH-CBD-DMH): None of the drugs assessed ((+)-CBD-DMH, (+)-7-OH-CBD-DMH and Δ^9-THC had any effect; also recorded: no effects; Kd (CB2 receptor [13]; previously reported, Bisogno et al. 2001, read-out: affinity for the CB2 receptor (Kd)): 44 nM; Ki (CB2 receptor [13]; second value of CB1/CB2 cell, data from Bisogno et al., 2001, read-out: CB2 Receptor Binding (Ki)): 44 nM; central effects (tetrad), in words (female Sabra mice [14]): very potent; central effects (tetrad), in words (female Sabra mice [14]; listed as (+)-7-OH-CBD-DMH): had central effects in all assays of the tetrad; central effects (tetrad), in words (female Sabra mice [14]; listed as (+)-7OH-CBD-DMH): significant and consistent central activity; reversal of inhibition of defecation by CB1 antagonist SR141716A (female Sabra mice [15]; agonist 20 mg/kg, SR141716A 1 mg/kg i.p. 30 minutes before agonist): effectively antagonized; reversal of inhibition of defecation by CB2 antagonist SR144528 (female Sabra mice [15]; agonist 20 mg/kg, SR144528 1 or 3 mg/kg i.p. 30 minutes before agonist): not at all; effect of VR1 antagonist capsazepine on inhibition of defecation (female Sabra mice [15]; data not shown): did not affect
4 | C=C(C)C1CCC(C)=CC1c1c(O)cc(CCCCC)cc1O (single isomer, unassigned; (+)) [+CBD, (+)-CBD] |  | 13 % MPE | 108 % MPE | 0.5 °C |  | 05 % MPE | 103 % MPE | 13 % MPE | CB1 receptor binding, in words (CB1 receptor [1]): weakly binds; inhibition of defecation / intestinal motility, in words (female Sabra mice [2]): had no central neither peripheral (intestinal motility) effects; also recorded: Lack of effects; CB2 receptor binding, in words (CB2 receptor [5]): weakly binds; inhibition of arachidonic acid-induced ear inflammation, in words [10]: had no effect; central effects (tetrad), in words (female Sabra mice [14]): had no central neither peripheral (intestinal motility) effects; also recorded: Lack of effects
5 | C=C(C)C1CCC(C(=O)O)=CC1c1c(O)cc(C(C)(C)CCCCCC)cc1O (single isomer, unassigned; (+)) [+COOH−CBD−DMH, (+)-7-Nor-carboxy CBD DMH] | 5.8 | 100* % MPE | 102 % MPE | 0.2 °C | 156 | 0 % MPE | 100 % MPE | 09 % MPE | 
6 | CCCCCCC(C)(C)c1cc(OC)c([C@@H]2C=C(CO)[C@@H]3C[C@H]2C3(C)C)c(OC)c1 [HU-308] |  |  |  |  |  |  |  |  | inhibition of defecation (earlier report) (female Sabra mice [16]): inhibited defecation
7 | COc1ccc2c(c1)c(CC(=O)O)c(C)n2C(=O)c1ccc(Cl)cc1 [Indomethacin, reference compound] |  |  |  |  |  |  |  |  | potency compared to indomethacin in ear inflammation, in words ([10]; (+)-CBD-DMH 40 or 10 mg/kg vs indomethacin 20 mg/kg): Equal potencies
8 | CCCCCc1cc(O)c2c(c1)OC(C)(C)[C@@H]1CCC(C)=C[C@@H]21 [Δ^9−THC, Delta-9 tetrahydrocannabinol, reference compound] |  | 100* % MPE | 44* % MPE | −2.1* ° C. |  | 44* % MPE | 12* % MPE | 97* % MPE | central effects in CB1−/− receptor knockout mice [11]: None of the drugs assessed ((+)-CBD-DMH, (+)-7-OH-CBD-DMH and Δ^9-THC had any effect; effect on intestinal motility in CB1−/− knockout mice [12]: None of the drugs assessed ((+)-CBD-DMH, (+)-7-OH-CBD-DMH and Δ^9-THC had any effect; also recorded: No significant effects
